# Test results from patent US7425557B2, “Inhibitors of glycogen synthase kinase 3” (Novartis Vaccines and Diagnostics, Inc., priority 1998, dated 2008).
# Molecular target: human GSK3β (Homo sapiens, UniProt P49841)
# Assay: Screening for GSK3 inhibitory activity using a cell-free assay
# Format: biochemical
# Details: read-out: IC50 with respect to GSK3
# Procedure, shortened: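 Compounds in DMSO were tested against human GSK3β over a three-hour kinase reaction. Radiolabeled phosphate transferred to the peptide was captured on streptavidin plates after EDTA/ATP stop and quantified by scintillation counting. Signal was plotted versus compound concentration.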
# Sequence of human GSK3β (P49841 whole entry): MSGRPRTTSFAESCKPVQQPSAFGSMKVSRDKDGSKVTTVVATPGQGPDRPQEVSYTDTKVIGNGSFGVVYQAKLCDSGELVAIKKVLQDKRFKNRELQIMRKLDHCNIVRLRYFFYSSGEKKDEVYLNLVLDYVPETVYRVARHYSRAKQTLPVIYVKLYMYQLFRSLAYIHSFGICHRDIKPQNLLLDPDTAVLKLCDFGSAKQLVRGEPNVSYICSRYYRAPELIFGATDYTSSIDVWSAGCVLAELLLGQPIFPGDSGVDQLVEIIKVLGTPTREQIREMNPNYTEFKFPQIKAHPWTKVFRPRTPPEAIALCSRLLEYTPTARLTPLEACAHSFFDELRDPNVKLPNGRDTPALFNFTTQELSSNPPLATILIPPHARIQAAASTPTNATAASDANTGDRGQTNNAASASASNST
row,Compound,IC50 [µM]
1,N#Cc1ccc(-c2nc(NCCNc3ccc([N+](=O)[O-])cn3)ncc2C(=O)N2CCOCC2)cc1 [4-[5-(morpholin-4-ylcarbonyl)-2-({2-[(5-nitro(2-pyridyl))amino]ethyl}-amino)pyrimidin-4-yl]benzenecarbonitrile],≤ 1
2,"CN(C)CCc1noc(-c2cnc(NCCNc3ccc([N+](=O)[O-])cn3)nc2-c2ccc(C#N)cc2)n1 [4-[5-{3-[2-(dimethylamino)ethyl](1,2,4-oxadiazol-5-yl)}-2-({2-[(5-nitro(2-pyridyl))amino]-ethyl}amino)pyrimidin-4-yl]benzenecarbonitrile]",≤ 1
3,O=C(O)c1c(-c2ccc([N+](=O)[O-])cc2)nc(NCCNc2ccc([N+](=O)[O-])cn2)nc1C1CCCCC1 [4-cyclohexyl-2-({2-[(5-nitro(2-pyridyl))amino]ethyl}amino)-6-(4-nitrophenyl)pyrimidine-5-carboxylic acid],≤ 10
4,Cc1nc(NCCNc2ccc([N+](=O)[O-])cn2)ncc1C(=O)O [4-methyl-2-({2-[(5-nitro(2-pyridyl))amino]ethyl}amino)pyrimidine-5-carboxylic acid],≤ 10
5,"NC(=O)c1ccc(-c2ccnc(NCC(c3ccccc3)c3ccccc3)n2)cc1 [4-{2-[(2,2-diphenylethyl)amino]pyrimidin-4-yl}-benzamide]",≤ 10
6,CC(=O)Nc1cccc(-c2cccc(CNc3nccc(-c4ccc(C(N)=O)cc4)n3)c2)c1 [4-{2-[({3-[3-(acetylamino)phenyl]phenyl}methyl)amino]pyrimidin-4-yl}benzamide],≤ 10
7,NC(=O)c1ccc(-c2ccnc(NCc3cccc(-c4cccc(C(F)(F)F)c4)c3)n2)cc1 [4-{2-[({3-[3-(trifluoromethyl)phenyl]phenyl}methyl)amino]pyrimidin-4-yl}benzamide],≤ 10
8,O=C(O)c1c(-c2ccccc2)nc(NCCNc2ccc([N+](=O)[O-])cn2)nc1-c1ccccc1F [6-(2-fluorophenyl)-2-({2-[(5-nitro(2-pyridyl))amino]ethyl}amino)-4-phenyl-pyrimidine-5-carboxylic acid],≤ 10
9,CCc1ccc(-c2nc(N(C)CCNc3ccc(C#N)cn3)ccc2N2CCN(C)CC2=O)cc1 [6-({2-[[6-(4-ethylphenyl)-5-(4-methyl-2-oxo-1-piperazinyl)-2-pyridinyl](methyl)amino]ethyl}amino)nicotinonitrile],≤ 10
10,"CN1CCN(c2cnc(NCCNc3ccc(C#N)cn3)nc2-c2ccc(Cl)cc2Cl)C(=O)C1 [6-[(2-{[4-(2,4-dichlorophenyl)-5-(4-methyl-2-oxo-1-piperazinyl)-2-pyrimidinyl]amino}ethyl)amino]-nicotinonitrile]",≤ 10
11,"N#Cc1ccc(NCCNc2ncc(-c3ncc[nH]3)c(-c3ccc(Cl)cc3Cl)n2)nc1 [6-[(2-{[4-(2,4-dichlorophenyl)-5-imidazol-2-ylpyrimidin-2-yl]amino}ethyl)amino]pyridine-3-carbonitrile]",≤ 1
12,"N#Cc1ccc(NCCNCc2ncc(-c3ncc[nH]3)c(-c3ccc(Cl)cc3Cl)n2)nc1 [6-[(2-{[4-(2,4-dichlorophenyl)-5-imidazol-2-ylpyrimidin-2-yl]methylamino}ethyl)amino]pyridine-3-carbonitrile]",≤ 1
13,N#Cc1ccc(NCCNc2ncc(-c3ncc[nH]3)c(-c3ccc(F)cc3Cl)n2)nc1 [6-[(2-{[4-(2-chloro-4-fluorophenyl)-5-imidazol-2-ylpyrimidin-2-yl]amino}ethyl)amino]pyridine-3-carbonitrile],≤ 1
14,Cc1c[nH]c(-c2cnc(NCCNc3ccc(C#N)cn3)nc2-c2ccc(Br)cc2Cl)n1 [6-[(2-{[4-(4-bromo-2-chlorophenyl)-5-(4-methylimidazol-2-yl)pyrimidin-2-yl]amino}ethyl)amino]pyridine-3-carbonitrile],≤ 1
15,N#Cc1ccc(NCCNc2ncc(-c3ncc[nH]3)c(-c3ccc(Br)cc3Cl)n2)nc1 [6-[(2-{[4-(4-bromo-2-chlorophenyl)-5-imidazol-2-ylpyrimidin-2-yl]amino}ethyl)amino]pyridine-3-carbonitrile],≤ 1
16,"CN1CCN(c2ccc(NCCNc3ccc(C#N)cn3)nc2-c2ccc(Cl)cc2Cl)C(=O)C1 [6-[(2-{[6-(2,4-dichlorophenyl)-5-(4-methyl-2-oxo-1-piperazinyl)-2-pyridinyl]amino}ethyl)amino]nicotinonitrile]",≤ 10

# The next lines start with the values.
row,IC50 [µM],Compound
1,≤ 1,CS(=O)(=O)c1cnc(NCCNc2ccc([N+](=O)[O-])cn2)nc1-c1ccc(C#N)cc1 [4-[5-(methylsulfonyl)-2-({2-[(5-nitro(2-pyridyl))amino]ethyl}amino)pyrimidin-4-yl]benzenecarbonitrile]
2,≤ 1,N#Cc1ccc(-c2nc(NCCNc3ccc([N+](=O)[O-])cn3)ncc2-c2ncc[nH]2)cc1 [4-[5-imidazol-2-yl-2-({2-[(5-nitro(2-pyridyl))amino]ethyl}amino)pyrimidin-4-yl]benzenecarbonitrile]
3,≤ 10,N#Cc1ccc(-c2nc(NCCNc3ccc([N+](=O)[O-])cn3)ncc2[N+](=O)[O-])cc1 [4-[5-nitro-2-({2-[(5-nitro(2-pyridyl))amino]ethyl}amino)pyrimidin-4-yl]benzenecarbonitrile]
4,≤ 10,N#Cc1ccc(-c2ccnc(NCCc3ccccn3)n2)cc1 [4-{2-[(2-(2-pyridyl)ethyl)-amino]pyrimidin-4-yl}benzenecarbonitrile]
5,≤ 1,NC(=O)c1ccc(-c2ccnc(NCCc3ccccn3)n2)cc1 [4-{2-[(2-(2-pyridyl)ethyl)amino]pyrimidin-4-yl}benzamide]
6,≤ 10,NC(=O)c1ccc(-c2ccnc(NCCOc3ccccc3)n2)cc1 [4-{2-[(2-phenoxyethyl)amino]pyrimidin-4-yl}benzamide]
7,≤ 1,CC(CNc1nccc(-c2ccc(C(N)=O)cc2)n1)c1ccccc1 (stereo not shown) [4-{2-[(2-phenylpropyl)amino]pyrimidin-4-yl}benzamide]
8,≤ 1,NC(=O)c1ccc(-c2ccnc(NCCNc3ccc(C(N)=S)cn3)n2)cc1 [4-{2-[(2-{[5-(aminothioxomethyl)-2-pyridyl]amino}ethyl)amino]pyrimidin-4-yl}benzamide]
9,≤ 1,NC(=O)c1ccc(-c2ccnc(NCCNc3ccc(C(F)(F)F)cn3)n2)cc1 [4-{2-[(2-{[5-(trifluoromethyl)-2-pyridyl]amino}-ethyl)amino]pyrimidin-4-yl}benzamide]
10,≤ 10,NC(=O)c1ccc(-c2ccnc(NCCCOc3ccc4ccccc4c3)n2)cc1 [4-{2-[(3-(2-naphthyloxy)propyl)amino]pyrimidin-4-yl}benzamide]
11,≤ 10,NC(=O)c1ccc(-c2ccnc(NCCCOc3ccc4ncccc4c3)n2)cc1 [4-{2-[(3-(6-quinolyloxy)propyl)-amino]pyrimidin-4-yl}benzamide]
12,≤ 10,NC(=O)c1ccc(-c2ccnc(NCCCOc3ccccc3)n2)cc1 [4-{2-[(3-phenoxypropyl)amino]pyrimidin-4-yl}benzamide]
13,≤ 10,NC(=O)c1ccc(-c2ccnc(NCCCCc3ccccc3)n2)cc1 [4-{2-[(4-phenylbutyl)amino]-pyrimidin-4-yl}benzamide]
14,≤ 10,NC(=O)c1ccc(-c2ccnc(NCc3ccncc3)n2)cc1 [4-{2-[(4-pyridylmethyl)amino]pyrimidin-4-yl}benzamide]
15,≤ 10,CCOC(=O)c1cnc(NCCNc2ccc(C(=O)O)cn2)nc1-c1ccc(C#N)cc1 [6-[(2-{[4-(4-cyanophenyl)-5-(ethoxycarbonyl)pyrimidin-2-yl]amino}ethyl)amino]pyridine-3-carboxylic acid]
